Where no end group is shown, it is not given here.
target: DRB1*0401 (DR4w4) (Homo sapiens, UniProt P01903+P01911, A100K/A169T/F76Y/I96L/K127E/L162R/M171V/N62H/P40V/Q125Y/R42H/S133A/S149N/S66Y/V115G/V209L/W38E); experiment: HLA class II binding assay, purified HLA molecules; conditions: Her2/neu DR supertype primary binding, Table XXVIII

| IC50 | Compound |
| --- | --- |
| 6160 nM | CC[C@H](C)[C@H](NC(=O)[C@H](CCC(=O)O)NC(=O)[C@@H](N)CCCCN)C(=O)N[C@@H](CC(C)C)C(=O)N[C@@H](CC(=O)O)C(=O)N[C@@H](CCC(=O)O)C(=O)N[C@@H](C)C(=O)N[C@@H](Cc1ccc(O)cc1)C(=O)N[C@H](C(=O)N[C@@H](CCSC)C(=O)N[C@@H](C)C(=O)NCC(=O)N[C@H](C(=O)NCC(=O)N[C@@H](CO)C(=O)O)C(C)C)C(C)C [Her2/neu.765] |
| 196 nM | CSCC[C@H](NC(=O)[C@@H](NC(=O)[C@H](Cc1ccc(O)cc1)NC(=O)[C@H](C)NC(=O)[C@H](CCC(=O)O)NC(=O)[C@@H](N)CC(=O)O)C(C)C)C(=O)N[C@@H](C)C(=O)NCC(=O)N[C@H](C(=O)NCC(=O)N[C@@H](CO)C(=O)N1CCC[C@H]1C(=O)N[C@@H](Cc1ccc(O)cc1)C(=O)N[C@H](C(=O)N[C@@H](CO)C(=O)O)C(C)C)C(C)C [Her2/neu.769] |
| 790 nM | CC[C@H](C)[C@H](NC(=O)[C@H](CCSC)NC(=O)[C@H](Cc1c[nH]c2ccccc12)NC(=O)[C@H](CS)NC(=O)[C@H](CCCCN)NC(=O)[C@@H](NC(=O)[C@H](CCSC)NC(=O)[C@@H](NC(=O)[C@H](CCSC)NC(=O)[C@H](Cc1ccc(O)cc1)NC(=O)[C@@H](NC(=O)[C@@H](N)CC(=O)O)C(C)C)[C@@H](C)CC)C(C)C)C(=O)N[C@@H](CC(=O)O)C(=O)N[C@@H](CO)C(=O)N[C@@H](CCC(=O)O)C(=O)O [Her2/neu.950] |

target: A*2402 (Homo sapiens, UniProt P04439, D101N/D140Y/D185E/E176V/E190D/F33S/G103R/G107R/I119L/I121M/I306V/K335N/L105A/L180Q/L300P/N151K/N90K/Q86E/Q94H/R106L/R138H/R89G/T104I/T345S/V100E/W191G/Y123F); experiment: HLA class I binding assay, purified HLA molecules; conditions: HLA-A24 Motif-Bearing Peptides, Table XXVI

| IC50 | Compound |
| --- | --- |
| 38 nM | CC[C@H](C)[C@H](NC(=O)[C@@H]1CCCN1C(=O)[C@H](CCSC)NC(=O)[C@H](Cc1ccc(O)cc1)NC(=O)[C@@H](N)CO)C(=O)N[C@@H](Cc1c[nH]c2ccccc12)C(=O)N[C@@H](CCCCN)C(=O)N[C@@H](Cc1ccccc1)C(=O)O [Her2/neu.609] |
| 24 nM | AYPDSLPDF [Herw/neu414.Y2F9] |
| 52 nM | AYSLTLQGF [Her2/neu.440.F9] |
| 92 nM | AYSLTLQGL [Her2/neu.440] |
| 164 nM | CYGLGMEHF [Her2/neu.342.F9] |
| 10 nM | LYISAWPDSF [Her2/neu,410.F10] |
| 143 nM | LYISAWPDSL [Her2/neu.410] |
| 44 nM | TYLPTNASF [Her2/neu.63.F9] |

target: DRB1*0701 (DR7) (Homo sapiens, UniProt P01903+P01911, A100R/A102G/A103Q/D57E/D86V/E43K/F76Y/K127E/L162R/M171V/P40G/Q125H/Q99D/R33Q/R42Y/R54Q/S133A/S66F/T210M/V115G/Y107V/Y59L/Y89S); experiment: HLA class II binding assay, purified HLA molecules; conditions: Her2/neu DR supertype primary binding, Table XXVIII

| IC50 | Compound |
| --- | --- |
| 1560 nM | CC(C)C[C@H](NC(=O)[C@H](C)NC(=O)[C@H](Cc1ccc(O)cc1)NC(=O)[C@H](CC(N)=O)NC(=O)[C@H](CC(=O)O)NC(=O)[C@H](CCC(=O)O)NC(=O)[C@H](Cc1ccccc1)NC(=O)[C@H](CC(C)C)NC(=O)[C@H](CCC(N)=O)NC(=O)[C@@H](N)[C@@H](C)O)C(=O)N[C@@H](C)C(=O)N[C@H](C(=O)N[C@@H](CC(C)C)C(=O)N[C@@H](CC(=O)O)C(=O)N[C@@H](CC(N)=O)C(=O)O)C(C)C [Her2/neu.105] |
| 2500 nM | CSCC[C@H](NC(=O)[C@H](CC(C)C)NC(=O)[C@H](CCC(N)=O)NC(=O)[C@@H](NC(=O)[C@@H](NC(=O)[C@H](CC(C)C)NC(=O)[C@H](CCC(N)=O)NC(=O)[C@@H](NC(=O)[C@@H](N)[C@@H](C)O)C(C)C)C(C)C)[C@@H](C)O)C(=O)N1CCC[C@H]1C(=O)N[C@@H](Cc1ccc(O)cc1)C(=O)NCC(=O)N[C@@H](CS)C(=O)N[C@@H](CC(C)C)C(=O)N[C@@H](CC(C)C)C(=O)O [Her2/neu.793] |
| 208 nM | CC[C@H](C)[C@H](NC(=O)[C@H](CCC(N)=O)NC(=O)[C@H](CCSC)NC(=O)[C@H](CS)NC(=O)[C@H](Cc1c[nH]c2ccccc12)NC(=O)[C@H](CC(N)=O)NC(=O)[C@H](CC(C)C)NC(=O)[C@@H](N)CC(C)C)C(=O)N[C@@H](C)C(=O)N[C@@H](CCCCN)C(=O)NCC(=O)N[C@@H](CCSC)C(=O)N[C@@H](CO)C(=O)N[C@@H](Cc1ccc(O)cc1)C(=O)N[C@@H](CC(C)C)C(=O)O [Her2/neu.822] |
| 1470 nM | CSCC[C@H](NC(=O)[C@H](CC(C)C)NC(=O)[C@H](CCC(=O)O)NC(=O)[C@H](Cc1c[nH]c2ccccc12)NC(=O)[C@@H](NC(=O)[C@@H](NC(=O)[C@@H](NC(=O)CN)C(C)C)[C@@H](C)O)C(C)C)C(=O)N[C@H](C(=O)N[C@@H](Cc1ccccc1)C(=O)NCC(=O)N[C@@H](C)C(=O)N[C@@H](CCCCN)C(=O)N1CCC[C@H]1C(=O)N[C@@H](Cc1ccc(O)cc1)C(=O)O)[C@@H](C)O [Her2/neu.909] |

target: A*0101 (Homo sapiens, UniProt P04439, A114D/A174V/A182V/D101N/D185E/E176A/E190D/L180R/Q94H/R68K/S129P/T187R/V100A/V91M/W191G); experiment: HLA class I binding assay, purified HLA molecules, inhibition of 125I-radiolabeled probe peptide; conditions: HLA-A1 Motif-Bearing Peptides, Table XXV

| IC50 | Compound |
| --- | --- |
| 250 nM | CC(C)[C@H](N)C(=O)N[C@H](C(=O)N[C@@H](C)C(=O)N[C@@H](CS)C(=O)N1CCC[C@H]1C(=O)N[C@@H](Cc1ccc(O)cc1)C(=O)N[C@@H](CC(N)=O)C(=O)N[C@@H](Cc1ccc(O)cc1)C(=O)O)[C@@H](C)O [Her2/neu.296] |
| 89 nM | ETHLDMLRHLY [Her2/neu.40] |
| 3.9 nM | ETMPNPEGRY [Her2/neu.280.T2] |
| 0.9 nM | GTDLFEDNY [Her2/neu.104.D3] |
| 50 nM | GTDMKLRLPY [Her2/neu.28.Y10] |
| 1.9 nM | HTDMLRHLY [Her2/neu.42.T2] |
| 5560 nM | VFETLEEITGY [Her2/neu.399] |

target: DRB1*0101 (DR1) (Homo sapiens, UniProt P01903+P01911, A100R/D57E/F55L/F60I/F76Y/I96L/L162R/M171V/P40L/Q125E/R42F/V115G/Y59C); experiment: HLA class II binding assay, purified HLA molecules; conditions: Her2/neu DR supertype primary binding, Table XXVIII

| IC50 | Compound |
| --- | --- |
| 100 nM | CSCC[C@H](NC(=O)[C@@H](NC(=O)[C@H](Cc1ccc(O)cc1)NC(=O)[C@H](C)NC(=O)[C@H](CCC(=O)O)NC(=O)[C@@H](N)CC(=O)O)C(C)C)C(=O)N[C@@H](C)C(=O)NCC(=O)N[C@H](C(=O)NCC(=O)N[C@@H](CO)C(=O)N1CCC[C@H]1C(=O)N[C@@H](Cc1ccc(O)cc1)C(=O)N[C@H](C(=O)N[C@@H](CO)C(=O)O)C(C)C)C(C)C [Her2/neu.769] |
| 22 nM | CSCC[C@H](NC(=O)[C@H](CC(C)C)NC(=O)[C@H](CCC(N)=O)NC(=O)[C@@H](NC(=O)[C@@H](NC(=O)[C@H](CC(C)C)NC(=O)[C@H](CCC(N)=O)NC(=O)[C@@H](NC(=O)[C@@H](N)[C@@H](C)O)C(C)C)C(C)C)[C@@H](C)O)C(=O)N1CCC[C@H]1C(=O)N[C@@H](Cc1ccc(O)cc1)C(=O)NCC(=O)N[C@@H](CS)C(=O)N[C@@H](CC(C)C)C(=O)N[C@@H](CC(C)C)C(=O)O [Her2/neu.793] |
| 6 nM | CC[C@H](C)[C@H](NC(=O)[C@H](CCC(N)=O)NC(=O)[C@H](CCSC)NC(=O)[C@H](CS)NC(=O)[C@H](Cc1c[nH]c2ccccc12)NC(=O)[C@H](CC(N)=O)NC(=O)[C@H](CC(C)C)NC(=O)[C@@H](N)CC(C)C)C(=O)N[C@@H](C)C(=O)N[C@@H](CCCCN)C(=O)NCC(=O)N[C@@H](CCSC)C(=O)N[C@@H](CO)C(=O)N[C@@H](Cc1ccc(O)cc1)C(=O)N[C@@H](CC(C)C)C(=O)O [Her2/neu.822] |
| 58 nM | CC[C@H](C)[C@H](NC(=O)CNC(=O)[C@H](CC(=O)O)NC(=O)[C@H](Cc1ccc(O)cc1)NC(=O)[C@@H]1CCCN1C(=O)[C@H](CCCCN)NC(=O)[C@H](C)NC(=O)CNC(=O)[C@H](Cc1ccccc1)NC(=O)[C@@H](NC(=O)[C@H](CCSC)NC(=O)[C@H](CC(C)C)NC(=O)[C@H](CCC(=O)O)NC(=O)[C@H](Cc1c[nH]c2ccccc12)NC(=O)[C@@H](N)C(C)C)[C@@H](C)O)C(=O)O [Her2/neu.912] |
| 1040 nM | ITDFGLARLLDIDET [Her2/neu.861] |
| 7140 nM | QPDVRPQPPSPREGP [Her2/neu.1142] |

The next lines start with the compound.

| Compound | IC50 |
| --- | --- |
| CC(C)C[C@H](NC(=O)[C@H](C)NC(=O)[C@H](Cc1ccc(O)cc1)NC(=O)[C@H](CC(N)=O)NC(=O)[C@H](CC(=O)O)NC(=O)[C@H](CCC(=O)O)NC(=O)[C@H](Cc1ccccc1)NC(=O)[C@H](CC(C)C)NC(=O)[C@H](CCC(N)=O)NC(=O)[C@@H](N)[C@@H](C)O)C(=O)N[C@@H](C)C(=O)N[C@H](C(=O)N[C@@H](CC(C)C)C(=O)N[C@@H](CC(=O)O)C(=O)N[C@@H](CC(N)=O)C(=O)O)C(C)C [Her2/neu.105] | 94 nM |
| CC[C@H](C)[C@H](NC(=O)[C@H](CCCCN)NC(=O)[C@H](CCCCN)NC(=O)[C@@H](N)CS)C(=O)N[C@@H](Cc1ccccc1)C(=O)NCC(=O)N[C@@H](CO)C(=O)N[C@@H](CC(C)C)C(=O)N[C@@H](C)C(=O)N[C@@H](Cc1ccccc1)C(=O)N[C@@H](CC(C)C)C(=O)N1CCC[C@H]1C(=O)N[C@@H](CCC(=O)O)C(=O)N[C@@H](CO)C(=O)N[C@@H](Cc1ccccc1)C(=O)O [Her2/neu.367] | 21 nM |
| CC[C@H](C)[C@H](NC(=O)CNC(=O)[C@@H](NC(=O)[C@@H](NC(=O)[C@H](C)NC(=O)[C@H](CO)NC(=O)[C@@H](NC(=O)[C@@H](NC(=O)[C@H](CO)NC(=O)[C@@H](NC(=O)[C@H](CC(C)C)NC(=O)[C@@H]1CCCN1C(=O)[C@H](CO)NC(=O)[C@H](C)N)[C@@H](C)O)[C@@H](C)CC)[C@@H](C)CC)C(C)C)C(C)C)C(=O)N[C@@H](CC(C)C)C(=O)O [Her2/neu.648] | 56 nM |
| CC[C@H](C)[C@H](NC(=O)CNC(=O)[C@@H](NC(=O)[C@@H](NC(=O)[C@H](C)NC(=O)[C@H](CO)NC(=O)[C@@H](NC(=O)[C@@H](NC(=O)[C@H](CO)NC(=O)[C@@H](NC(=O)[C@@H](N)CC(C)C)[C@@H](C)O)[C@@H](C)CC)[C@@H](C)CC)C(C)C)C(C)C)C(=O)N[C@@H](CC(C)C)C(=O)N[C@@H](CC(C)C)C(=O)N[C@H](C(=O)N[C@H](C(=O)O)C(C)C)C(C)C [Her2/neu.651] | 26 nM |
| CC[C@H](C)[C@H](NC(=O)[C@H](C)NC(=O)[C@@H](NC(=O)[C@@H]1CCCN1C(=O)[C@@H](NC(=O)[C@H](CCCCN)NC(=O)[C@@H](NC(=O)[C@H](CC(N)=O)NC(=O)[C@H](CCC(=O)O)NC(=O)CN)C(C)C)[C@@H](C)CC)C(C)C)C(=O)N[C@@H](CCCCN)C(=O)N[C@H](C(=O)N[C@@H](CC(C)C)C(=O)N[C@@H](CCCNC(=N)N)C(=O)N[C@@H](CCC(=O)O)C(=O)O)C(C)C [Her2/neu.743] | 79 nM |
| DMKLRLPASPETHLD [Her2/neu.30] | 5000 nM |
| ETELVEPLTPSGAMP [Her2/neu.693] | 833 nM |
| LLVVVLGVVFGILIK [Her2/neu.662] | > 6250 nM |
| VEPLTPSGAMPNQAQ [Her2/neu.697] | > 6250 nM |
